Reference: ChEMBL document CHEMBL3046252, “Synthesis and herbicidal potential of substituted aurones” (2012)

Key:
Type in all cases: functional
Digitaria sanguinalis [1] = test: Post-emergence herbicidal activity against Digitaria sanguinalis (hairy crabgrass) seedlings assessed as inhibition of plant fresh weight growth at 1500 g/ha applied through spraying under greenhouse conditions; conditions: read-out: GI
Echinochloa crus-galli [2] = test: Post-emergence herbicidal activity against Echinochloa crus-galli (barnyard grass) seedlings assessed as inhibition of plant fresh weight growth at 1500 g/ha applied through spraying under greenhouse conditions; conditions: read-out: GI
Echinochloa crus-galli [3] = test: Herbicidal activity against Echinochloa crus-galli (barnyard grass) plants assessed as germination rate at 1000 ug/ml measured on first day post dose (reference value: 49.1 +/- 1.6%)
Digitaria sanguinalis [4] = test: Pre-emergence herbicidal activity against Digitaria sanguinalis (hairy crabgrass) assessed as inhibition of plant fresh weight growth at 1500 g/ha applied to soil through spraying under greenhouse conditions; conditions: read-out: GI
Paraixeris denticulata [5] = test: Herbicidal activity against Paraixeris denticulata assessed as germination rate at 1000 ug/ml measured on first day post dose (reference value: 30.8 +/- 1.2%)
[6] = test system: Brassica rapa subsp. oleifera; test: Pre-emergence herbicidal activity against Brassica rapa subsp. oleifera assessed as inhibition of plant fresh weight growth at 1500 g/ha applied to soil through spraying under greenhouse conditions; conditions: read-out: GI
Paraixeris denticulata [7] = test: Herbicidal activity against Paraixeris denticulata assessed as germination rate at 1000 ug/ml measured on fourth day post dose (reference value: 100%)
Echinochloa crus-galli [8] = test: Pre-emergence herbicidal activity against Echinochloa crus-galli (barnyard grass) assessed as inhibition of plant fresh weight growth at 1500 g/ha applied to soil through spraying under greenhouse conditions; conditions: read-out: GI
Paraixeris denticulata [9] = test: Herbicidal activity against Paraixeris denticulata assessed as germination rate at 1000 ug/ml measured on second day post dose (reference value: 76.7 +/- 0.3%)
[10] = test system: Brassica rapa subsp. oleifera; test: Herbicidal activity against Brassica rapa subsp. oleifera assessed as inhibition of root growth at 100 ug/ml after 65 hr by rape cup test; conditions: read-out: GI
Echinochloa crus-galli [11] = test: Herbicidal activity against Echinochloa crus-galli (barnyard grass) plants assessed as germination rate at 1000 ug/ml measured on second day post dose (reference value: 100%)
Echinochloa crus-galli [12] = test: Herbicidal activity against Echinochloa crus-galli (barnyard grass) plants assessed as inhibition of seedling growth at 100 ug/ml after 65 hr by barnyard cup test; conditions: read-out: GI
Amaranthus retroflexus [13] = test: Pre-emergence herbicidal activity against Amaranthus retroflexusassessed as inhibition of plant fresh weight growth at 1500 g/ha applied to soil through spraying under greenhouse conditions; conditions: read-out: GI
Paraixeris denticulata [14] = test: Herbicidal activity against Paraixeris denticulata assessed as germination rate at 1000 ug/ml measured on third day post dose (reference value: 97.4 +/- 0.6%)
Amaranthus retroflexus [15] = test: Post-emergence herbicidal activity against Amaranthus retroflexus seedlings assessed as inhibition of plant fresh weight growth at 1500 g/ha applied through spraying under greenhouse conditions; conditions: read-out: GI
[16] = test system: Brassica rapa subsp. oleifera; test: Post-emergence herbicidal activity against Brassica rapa subsp. oleifera seedlings assessed as inhibition of plant fresh weight growth at 1500 g/ha applied through spraying under greenhouse conditions; conditions: read-out: GI
[17] = test system: Brassica rapa subsp. oleifera; test: Herbicidal activity against Brassica rapa subsp. oleifera assessed as inhibition of root growth at 1000 ug/ml after 65 hr by rape cup test; conditions: read-out: GI
Echinochloa crus-galli [18] = test: Herbicidal activity against Echinochloa crus-galli (barnyard grass) plants assessed as inhibition of seedling growth at 1000 ug/ml after 65 hr by barnyard cup test; conditions: read-out: GI
[19] = test system: Brassica rapa subsp. oleifera; test: Herbicidal activity against Brassica rapa subsp. oleifera assessed as inhibition of root growth at 10 ug/ml after 65 hr by rape cup test; conditions: read-out: GI
Digitaria sanguinalis [20] = test: Herbicidal activity against Digitaria sanguinalis (hairy crabgrass) assessed as germination rate at 1000 ug/ml measured on third day post dose (reference value: 100%)
Digitaria sanguinalis [21] = test: Herbicidal activity against Digitaria sanguinalis (hairy crabgrass) assessed as germination rate at 1000 ug/ml measured on first day post dose (reference value: 0%)
Digitaria sanguinalis [22] = test: Herbicidal activity against Digitaria sanguinalis (hairy crabgrass) assessed as germination rate at 1000 ug/ml measured on second day post dose (reference value: 100%)
Digitaria sanguinalis [23] = test: Pre-emergence herbicidal activity against Digitaria sanguinalis (hairy crabgrass) assessed as inhibition of plant fresh weight growth at 150 g/ha applied to soil through spraying under greenhouse conditions; conditions: read-out: GI
Amaranthus retroflexus [24] = test: Pre-emergence herbicidal activity against Amaranthus retroflexus assessed as inhibition of plant fresh weight growth at 150 g/ha applied to soil through spraying under greenhouse conditions; conditions: read-out: GI
Echinochloa crus-galli [25] = test: Pre-emergence herbicidal activity against Echinochloa crus-galli (barnyard grass) assessed as inhibition of plant fresh weight growth at 150 g/ha applied to soil through spraying under greenhouse conditions; conditions: read-out: GI
Echinochloa crus-galli [26] = test: Post-emergence herbicidal activity against Echinochloa crus-galli (barnyard grass) seedlings assessed as inhibition of plant fresh weight growth at 150 g/ha applied through spraying under greenhouse conditions; conditions: read-out: GI
[27] = test system: Brassica rapa subsp. oleifera; test: Post-emergence herbicidal activity against Brassica rapa subsp. oleifera seedlings assessed as inhibition of plant fresh weight growth at 150 g/ha applied through spraying under greenhouse conditions; conditions: read-out: GI
[28] = test system: Brassica rapa subsp. oleifera; test: Pre-emergence herbicidal activity against Brassica rapa subsp. oleifera assessed as inhibition of plant fresh weight growth at 150 g/ha applied to soil through spraying under greenhouse conditions; conditions: read-out: GI
Amaranthus retroflexus [29] = test: Post-emergence herbicidal activity against Amaranthus retroflexus seedlings assessed as inhibition of plant fresh weight growth at 150 g/ha applied through spraying under greenhouse conditions; conditions: read-out: GI
Digitaria sanguinalis [30] = test: Post-emergence herbicidal activity against Digitaria sanguinalis (hairy crabgrass) seedlings assessed as inhibition of plant fresh weight growth at 150 g/ha applied through spraying under greenhouse conditions; conditions: read-out: GI

SMILES	inhibition of growth at 1500 g/ha (Digitaria sanguinalis [1]) [%]	inhibition of growth at 1500 g/ha (Echinochloa crus-galli [2]) [%]	Activity (Echinochloa crus-galli [3]) [%]	inhibition of growth at 1500 g/ha (Digitaria sanguinalis [4]) [%]	Activity (Paraixeris denticulata [5]) [%]	inhibition of growth at 1500 g/ha [6] [%]	Activity (Paraixeris denticulata [7]) [%]	inhibition of growth at 1500 g/ha (Echinochloa crus-galli [8]) [%]	Activity (Paraixeris denticulata [9]) [%]	inhibition of growth at 100 µg/mL [10] [%]	Activity (Echinochloa crus-galli [11]) [%]	inhibition of growth at 100 µg/mL (Echinochloa crus-galli [12]) [%]	inhibition of growth at 1500 g/ha (Amaranthus retroflexus [13]) [%]	Activity (Paraixeris denticulata [14]) [%]	inhibition of growth at 1500 g/ha (Amaranthus retroflexus [15]) [%]	inhibition of growth at 1500 g/ha [16] [%]	inhibition of growth at 1000 µg/mL [17] [%]	inhibition of growth at 1000 µg/mL (Echinochloa crus-galli [18]) [%]	inhibition of growth at 10 µg/mL [19] [%]	also measured
COc1cc(OC)c2c(c1)O/C(=C\c1ccccc1F)C2=O	0	6.5	11.4	0	17.8	0	100	15	58.9	74.7	100	15	10	76.7	40.1	0	86.8	45	–	–
COc1cc(OC)c2c(c1)O/C(=C\c1ccccc1)C2=O	0	0	18.8	0	2.5	0	100	10	75.7	88.5	100	0	0	95	42.2	15	91.4	20	81.3	Activity (Digitaria sanguinalis [20]): 100%; Activity (Digitaria sanguinalis [21]): 0%; Activity (Digitaria sanguinalis [22]): 22.5%
CCOc1cc(OCC)c2c(c1)O/C(=C\c1ccc(OCc3ccccc3)c(OC)c1)C2=O	5	7.9	–	10	–	0	–	0	–	79.2	–	15	5	–	0	0	72.6	26.7	–	–
CS(=O)(=O)c1ccc(C(=O)C2C(=O)CCCC2=O)c([N+](=O)[O-])c1 [MESOTRIONE]	–	–	–	–	–	–	–	–	–	89.7	–	90.5	–	–	–	–	93.4	96.1	80.3	inhibition of growth at 150 g/ha (Digitaria sanguinalis [23]): 100%; inhibition of growth at 150 g/ha (Amaranthus retroflexus [24]): 97.9%; inhibition of growth at 150 g/ha (Echinochloa crus-galli [25]): 92.5%; inhibition of growth at 150 g/ha (Echinochloa crus-galli [26]): 86.7%; inhibition of growth at 150 g/ha [27]: 100%; inhibition of growth at 150 g/ha [28]: 97.8%; inhibition of growth at 150 g/ha (Amaranthus retroflexus [29]): 100%; inhibition of growth at 150 g/ha (Digitaria sanguinalis [30]): 100%
